This passage reports EC50, h left shift and r left shift results from patent EP2650284A1, “Heterocyclic derivatives as metabotropic glutamate receptor modulators” (Merz Pharma GmbH & Co. KGaA, priority 2012, dated 2013).

Each structure is given as a SMILES string. pEC50: −log10 of the molar value. Read-outs that look alike come from different tables or passages of the source.

In one experiment the target is T1, mGluR5 receptors (Rattus norvegicus, UniProt P31424).
T1 construct: Primary astrocyte cultures are prepared from cortices of newborn rats; endogenous in cells; host or cells: primary cortical astrocytes from Sprague-Dawley rat pups (2-4 d old)
T1 sequence (P31424 21-1203): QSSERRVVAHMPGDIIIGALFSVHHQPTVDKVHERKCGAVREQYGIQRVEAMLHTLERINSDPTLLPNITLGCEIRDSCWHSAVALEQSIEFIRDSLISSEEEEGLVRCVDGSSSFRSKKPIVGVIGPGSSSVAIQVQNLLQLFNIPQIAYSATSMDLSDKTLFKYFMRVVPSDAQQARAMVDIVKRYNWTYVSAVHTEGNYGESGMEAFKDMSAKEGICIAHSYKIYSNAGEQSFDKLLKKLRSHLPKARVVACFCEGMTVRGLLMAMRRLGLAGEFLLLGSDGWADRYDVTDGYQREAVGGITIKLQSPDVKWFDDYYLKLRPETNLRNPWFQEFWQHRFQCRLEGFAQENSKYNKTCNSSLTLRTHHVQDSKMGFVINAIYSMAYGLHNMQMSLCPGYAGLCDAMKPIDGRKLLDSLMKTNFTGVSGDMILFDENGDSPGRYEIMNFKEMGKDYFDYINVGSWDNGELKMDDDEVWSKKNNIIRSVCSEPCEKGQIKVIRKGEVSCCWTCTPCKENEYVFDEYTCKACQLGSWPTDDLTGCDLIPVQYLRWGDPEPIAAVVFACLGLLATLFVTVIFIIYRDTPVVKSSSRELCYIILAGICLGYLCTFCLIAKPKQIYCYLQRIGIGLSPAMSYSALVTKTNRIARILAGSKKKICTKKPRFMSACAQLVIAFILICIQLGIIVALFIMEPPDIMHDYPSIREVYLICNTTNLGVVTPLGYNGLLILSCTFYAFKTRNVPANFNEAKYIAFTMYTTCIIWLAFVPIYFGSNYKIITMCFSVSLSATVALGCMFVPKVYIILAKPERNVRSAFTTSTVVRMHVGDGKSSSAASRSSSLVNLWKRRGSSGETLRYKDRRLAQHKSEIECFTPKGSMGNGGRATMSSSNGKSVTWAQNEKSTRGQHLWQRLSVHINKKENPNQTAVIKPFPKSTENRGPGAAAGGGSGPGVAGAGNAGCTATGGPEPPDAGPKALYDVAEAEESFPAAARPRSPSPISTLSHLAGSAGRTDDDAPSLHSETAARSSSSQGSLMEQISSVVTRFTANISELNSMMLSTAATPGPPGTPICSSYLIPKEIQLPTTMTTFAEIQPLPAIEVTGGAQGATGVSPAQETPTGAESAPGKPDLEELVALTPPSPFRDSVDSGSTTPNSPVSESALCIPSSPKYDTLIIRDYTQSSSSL
The experiment is described as follows: Cytosolic calcium studies with astrocytes (FLIPR), functional assay of mGluR5 receptors. Format: cell-based. As to the method: Primary astrocyte cultures are prepared from cortices of newborn rats as described by Booher and Sensenbrenner (1972, Neurobiology 2(3):97-105). Briefly, Sprague-Dawley rat pups (2 - 4 d old) are decapitated and neocortices are dissected, disintegrated with a nylon filter (pore size 80 µm) and carefully triturated. The cell suspension is plated on poly-D-lysine pre-coated flasks (Costar, Netherlands) and cultivated in Dulbecco's Modified Eagle's Medium (DMEM, Invitrogen, Germany) supplemented with 10% foetal calf serum (FCS, Sigma, Germany), 4 mM glutamine and 50 µg/ml gentamycin (both Biochrom, Germany) at 37°C in a humidified atmosphere of 5% CO2/ 95% air for 7 days with exchanging the medium at day 2 and 6.
After 7 days in vitro (DIV), cells are shaken overnight at 250 rpm to remove oligodendrocytes and microglia. The next day, astrocytes are rinsed twice with CMF-PBS (calcium- and magnesium-free phosphate buffered saline, Biochrom, Germany), trypsinized and subplated on poly-D-lysine pre-coated 96-well plates (Greiner, Germany) at a density of 40,000 cells/well. 24 h after establishing the secondary culture the astrocytes are rinsed with PBS^++ (phosphate buffered saline, Biochrom, Germany) and fed with astrocyte-defined medium (ADM) consisting of DMEM containing 1x G5-supplement (Invitrogen, Germany), 0.5 µg/ml heparan sulfate, and 1.5 µg/ml fibronectin (both Sigma, Germany) (Miller et al., (1993) Brain Res. 618(1):175-8). 3 days later the medium is exchanged and the cells incubated for another 2-3 days, so that at the time of experiments astrocytes are 14-15 DIV.
The increase of cytosolic calcium after stimulation with the mGluR5 agonist L-quisqualate is measured using a fluorometric imaging plate reader (FLIPR) and the Ca-Kit (both Molecular Devices). Prior to addition of agonist or antagonist the medium is aspirated and cells are loaded for 2 h at RT with 150 µl of loading buffer consisting of Ca-sensitive dye reconstituted in sodium chloride (123 mM), potassium chloride (5.4 mM), magnesium chloride (0.8 mM), calcium chloride (1.8 mM), D-glucose (15 mM), and HEPES (20 mM), pH 7.3. Subsequently, plates are transferred to FLIPR to detect calcium increase with the addition of L-quisqualate (100 nM) measured as relative fluorescence units (RFU). If antagonists are tested, these compounds are pre-incubated for 10 minutes at RT before addition of the respective agonist.
For positive modulators, concentration-response curves for quisqualate are performed in the presence and absence of 10 µM modulator to determine the extent of potentiation / agonist potency increase. Thereafter, concentration-response curves for the positive modulator are performed in the presence of a fixed concentration of quisqualate showing the biggest window for potentiation (normally 10-30 nM).
(§1) The fluorescence signal increase after addition of agonist reflects the increase of cytosolic calcium. Inconsistencies in the amount of cells per well are normalised by using the spatial uniformity correction of the FLIPR operating software Screenworks. The mean of replicated temporal data (n=3-5) is calculated and used for graphical representation. For the evaluation of the pharmacology, the calcium changes in response to different concentrations of agonist or antagonist are determined using a maximum minus minimum (MaxMin) calculation.
(§2) All responses (RFU-values) are determined as percentage of control (= maximum response). EC50 and IC50 are calculated according the logistic equation using XLFit (IDBS, UK) or Prism 4.0 (GraphPad Software, USA). The compounds of the present invention have a potency (EC50 or IC50) within a range of about 0.5 nM to about 100 µM. The left shifts for positive or slient allosteric modulators (PAMs or SAMs, respectively) are determined by comparison of EC50 values from agonist dose response curves run in the presence of 10 µM modulator or vehicle (Vanejevs et al., J. Med. Chem., 2008, 51, 634-647).

The target of experiment [1] is T2, human metabotropic glutamate receptor mGluR5 (Homo sapiens, UniProt P41594).
T2 construct: expressed in transfected cells; host or cells: CHO-K1 (h5CHO), IPTG-inducible
T2 sequence (P41594 21-1212): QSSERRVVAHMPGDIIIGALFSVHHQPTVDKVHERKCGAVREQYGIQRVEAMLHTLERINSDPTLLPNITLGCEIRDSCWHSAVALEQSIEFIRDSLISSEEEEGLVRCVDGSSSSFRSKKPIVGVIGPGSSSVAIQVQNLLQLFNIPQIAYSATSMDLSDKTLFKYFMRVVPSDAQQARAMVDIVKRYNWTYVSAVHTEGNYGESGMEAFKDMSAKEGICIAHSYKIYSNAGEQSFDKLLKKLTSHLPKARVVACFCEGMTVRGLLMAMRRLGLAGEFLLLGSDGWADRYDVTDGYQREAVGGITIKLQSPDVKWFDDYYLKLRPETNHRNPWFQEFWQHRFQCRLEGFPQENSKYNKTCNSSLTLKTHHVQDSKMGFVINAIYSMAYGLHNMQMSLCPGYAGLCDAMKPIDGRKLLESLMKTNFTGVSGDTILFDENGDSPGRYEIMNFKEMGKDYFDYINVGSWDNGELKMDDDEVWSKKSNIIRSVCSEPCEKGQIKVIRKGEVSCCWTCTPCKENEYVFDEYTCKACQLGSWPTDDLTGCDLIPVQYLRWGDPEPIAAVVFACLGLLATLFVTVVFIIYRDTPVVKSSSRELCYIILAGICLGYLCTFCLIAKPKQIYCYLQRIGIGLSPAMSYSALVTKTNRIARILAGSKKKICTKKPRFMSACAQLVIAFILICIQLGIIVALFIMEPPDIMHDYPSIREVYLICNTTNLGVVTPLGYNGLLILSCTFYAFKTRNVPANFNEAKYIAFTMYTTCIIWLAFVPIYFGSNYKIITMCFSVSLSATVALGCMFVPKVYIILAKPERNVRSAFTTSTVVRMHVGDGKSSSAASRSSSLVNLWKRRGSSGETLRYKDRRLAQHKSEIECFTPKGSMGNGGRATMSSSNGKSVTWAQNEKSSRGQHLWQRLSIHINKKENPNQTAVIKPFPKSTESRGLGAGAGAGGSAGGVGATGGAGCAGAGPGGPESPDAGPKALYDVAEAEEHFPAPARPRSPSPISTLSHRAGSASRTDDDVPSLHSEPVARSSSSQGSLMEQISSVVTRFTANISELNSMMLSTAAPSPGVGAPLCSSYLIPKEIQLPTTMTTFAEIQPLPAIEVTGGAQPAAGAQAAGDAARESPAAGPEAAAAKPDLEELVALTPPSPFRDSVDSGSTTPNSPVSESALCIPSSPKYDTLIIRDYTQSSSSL
Nature of the experiment: Cytosolic calcium studies with stably transfected cells (h5CHO), functional assay of mGluR5 receptors. Format: cell-based. The following applies: for h left shift: h5CHO cells; for pEC50: positive modulators, h5CHO cells preincubated with modulator, stimulated by an EC20 concentration of L-glutamate, read-out: hEC50. The method, then:
Chinese hamster ovary cells (CHO-K1 cells), stably transfected for inducible expression of a human metabotropic glutamate receptor mGluR5 to form a cell line called h5CHO, are seeded into black clear bottom 96 well plates at a density of 35.000 cells per well. The standard growth medium used (Dulbecco's modified Eagle Medium, DMEM plus L-proline) contains the appropriate inducer isopropyl-β-D-thiogalactopyranosid (IPTG) to achieve optimal receptor expression. One day after seeding the growth medium is exchanged for reconstituted Ca-Kit (Molecular Devices, USA) and incubated for one hour. Ca-Kit is reconstituted in an assay buffer containing 20 mM HEPES pH 7.4, glutamic-pyruvate transaminase, pyridoxal phosphate and sodium pyruvate in Hank's balanced salt solution (HBBS). Agonistic compounds to the receptor elicit increases in cytosolic calcium which can be measured as increases in fluorescence signals by use of a fluorescence imaging plate reader (Molecular Devices). To analyze their potency to negatively modulate the Ca-response test compounds, dissolved in a final DMSO concentration of 0.5%, are added on-line 5 minutes before the agonist to the receptor (L-quisqualic acid at a concentration giving ~80% of the maximal signal). EC50 values for positive allosteric modulators were determined by stimulating the cells which have been preincubated the modulators by an EC20 concentration of L-glutamate.
as §1, §2

The mark [2] stands for this setting: Table A1, positive modulators, fixed concentration of quisqualate (normally 10-30 nM), read-out: rEC50.
Setting [3] is: Table A1, left shift of agonist EC50, dose response curves in the presence of 10 µM modulator or vehicle.
[4] abbreviates: Table A1, left shift of quisqualate EC50 in the presence and absence of 10 µM modulator.
Where [5] appears, read: Table A3 (SAMs / very weak PAMs), quisqualate EC50 shift with 10 µM modulator.
[6] abbreviates: Table A3, given in brackets where Ki is n.d., read-out: r EC50.
Where [7] appears, read: Table A3 (SAMs / very weak PAMs), agonist EC50 shift with 10 µM modulator or vehicle.

Turning to `O=C(N1CCC1)N1CCO[C@@H]2c3cc(C#Cc4ccccc4)cnc3CC[C@@H]21` (racemic) [Example 65, (rac)-cis-Azetidin-1-yl-(9-(phenylethynyl)-5,6-dihydro-2H-[1,4]oxazino[2,3-f]quinolin-4(3H,4aH,10bH)-yl)methanone], the pEC50 on mGluR5 receptors (setting [2]) is 5.49. Besides, the h left shift in experiment [1] (setting [3]) is 1.8-fold.

Regarding `O=C1OC2(CCCc3ncc(C#Cc4cccc(F)c4)cc32)CN1c1ccccc1` (racemic) [Example 67, (rac)-3'-((3-Fluorophenyl)ethynyl)-3-phenyl-7',8'-dihydro-6'H-spiro[oxazolidine-5,5'-quinolin]-2-one], at mGluR5 receptors (setting [4]), the r left shift is reported as 1.7-fold. Moreover, the results for the pEC50 (at mGluR5 receptors (setting [2]); in experiment [1] (Table A1)) were 7.05 and 5.88, respectively. Also, in experiment [1] (setting [3]), the h left shift is listed as 2.1-fold.

For the compound `COC(=O)N1C[C@H]2Cc3cc(C#Cc4cccc(F)c4)cnc3[C@H]2C1` (racemic) [Example 73, (rac)-cis-Methyl 3-((3-fluorophenyl)ethynyl)-5a,6,8,8a-tetrahydropyrrolo[3',4':4,5]cyclopenta[1,2-b]pyridine-7(5H)-carboxylate], the r left shift on mGluR5 receptors (setting [4]) was 2.7-fold. The pEC50 at mGluR5 receptors (setting [2]) was 6.66; in experiment [1] (Table A1), 6.26. In addition, the h left shift in experiment [1] (setting [3]) is reported as 2.7-fold.

Consider `O=C1OC2(CCCc3ncc(C#Cc4ccccc4)cc32)CN1C1CC1` (racemic) [Example 74, (rac)-3-Cyclopropyl-3'-(phenylethynyl)-7',8'-dihydro-6'H-spiro[oxazolidine-5,5'-quinolin]-2-one], for which the r left shift at mGluR5 receptors (setting [4]) is given as 1.5-fold. Further, the pEC50 at mGluR5 receptors (setting [2]) is 8.00. Moreover, the h left shift in experiment [1] (setting [3]) is recorded as 1.6-fold.

For `O=C1OC2(CCCc3ncc(C#Cc4cccc(F)c4)cc32)CN1C1CC1` (racemic) [Example 76, (rac)-3-Cyclopropyl-3'-((3-fluorophenyl)ethynyl)-7',8'-dihydro-6'H-spiro[oxazolidine-5,5'-quinolin]-2-one], at mGluR5 receptors (setting [5]), the r left shift was 1.4-fold. The pEC50 on mGluR5 receptors (setting [6]) is 7.30. Also, in experiment [1] (setting [7]), the h left shift is 1.6-fold.

Take `COC(=O)N1CC2Cc3cc(C#Cc4ccccc4)cnc3C2C1` (racemic) [Example 79, (rac)-Methyl 3-(phenylethynyl)-5a,6,8,8a-tetrahydropyrrolo[3',4':4,5]cyclopenta[1,2-b]pyridine-7(5H)-carboxylate]: on mGluR5 receptors (setting [4]), the r left shift is given as 4.1-fold. The pEC50 on mGluR5 receptors (setting [2]) was 6.78; in experiment [1] (Table A1), 7.19. In addition, in experiment [1] (setting [3]), the h left shift was 2.6-fold.

As to `COC(=O)N1CC[C@H]2CCc3cc(C#Cc4ccccc4)cnc3[C@H]21` (racemic) [Example 80, (rac)-cis-Methyl 7-(phenylethynyl)-2,3,3a,4,5,9b-hexahydro-1H-pyrrolo[3,2-h]quinoline-1-carboxylate], the r left shift on mGluR5 receptors (setting [5]) is 1.8-fold. On mGluR5 receptors (setting [6]), the pEC50 was 7.45. Moreover, in experiment [1] (setting [7]), the h left shift is 1.5-fold.

For `CCCN1CC2(CCCc3ncc(C#Cc4ccccc4)cc32)OC1=O` (racemic) [Example 82, (rac)-3'-(Phenylethynyl)-3-propyl-7',8'-dihydro-6'H-spiro[oxazolidine-5,5'-quinolin]-2-one], at mGluR5 receptors (setting [4]), the r left shift is 1.6-fold. The figures for the pEC50 (at mGluR5 receptors (setting [2]); in experiment [1] (Table A1)) were 6.63 and 6.14, respectively. Further, the h left shift in experiment [1] (setting [3]) is listed as 1.9-fold.

With `CCCN1CCO[C@@H]2c3cc(C#Cc4ccccc4)cnc3CC[C@@H]21` (single isomer, unassigned) [Example 16, cis-9-(Phenylethynyl)-4-propyl-3,4,4a,5,6,10b-hexahydro-2H-[1,4]oxazino[2,3-f]quinoline], the r left shift on mGluR5 receptors (setting [4]) is 6.0-fold. Moreover, the pEC50 at mGluR5 receptors (setting [2]) was 6.34; in experiment [1] (Table A1), 7.33. In addition, the h left shift in experiment [1] (setting [3]) is recorded as 3.8-fold.

As to `Cn1ncc2c1-c1cc(C#Cc3ccccc3)cnc1CC2` [Example 28, 1-Methyl-8-(phenylethynyl)-4,5-dihydro-1H-pyrazolo[3,4-f]quinoline], on mGluR5 receptors (setting [4]), the r left shift is 2.2-fold. In addition, the h left shift in experiment [1] (setting [3]) is recorded as 2.4-fold. For the same compound, the pEC50 in experiment [1] (Table A1) is 7.72.

In the case of `COC(=O)N1CC2CCc3ncc(C#Cc4ccccc4)cc3C2C1` (centres unmarked) [Example 30, Methyl 8-(phenylethynyl)-3,3a,4,5-tetrahydro-1H-pyrrolo[3,4-f]quinoline-2(9bH)-carboxylate], the r left shift at mGluR5 receptors (setting [4]) is reported as 3.0-fold. Besides, the pEC50 at mGluR5 receptors (setting [2]) is 6.59; in experiment [1] (Table A1), 6.46. The h left shift in experiment [1] (setting [3]) is 2.5-fold.

For the compound `COC(=O)N1CC2CCc3ncc(C#Cc4cccc(F)c4)cc3C2C1` (centres unmarked) [Example 31, Methyl 8-((3-fluorophenyl)ethynyl)-3,3a,4,5-tetrahydro-1H-pyrrolo[3,4-f]quinoline-2(9bH)-carboxylate], the r left shift at mGluR5 receptors (setting [4]) was 1.5-fold. Moreover, the pEC50 on mGluR5 receptors (setting [2]) is 6.58; in experiment [1] (Table A1), 6.48. For the same compound, in experiment [1] (setting [3]), the h left shift was 2.6-fold.

With `CC(C)(C)C(=O)N1CCc2ncc(C#Cc3ccccc3)cc2C1` [Example 34, 2,2-Dimethyl-1-(3-(phenylethynyl)-7,8-dihydro-1,6-naphthyridin-6(5H)-yl)propan-1-one], on mGluR5 receptors (setting [4]), the r left shift is 2.8-fold. In addition, the pEC50 is 7.17 at mGluR5 receptors (setting [2]) and 6.77 in experiment [1] (Table A1). In addition, the h left shift in experiment [1] (setting [3]) was 2.3-fold.

Take `CC1(C(=O)N2CCc3ncc(C#Cc4ccccc4)cc3C2)COC1` [Example 36, (3-Methyloxetan-3-yl)(3-(phenylethynyl)-7,8-dihydro-1,6-naphthyridin-6(5H)-yl)methanone]: the r left shift at mGluR5 receptors (setting [4]) is 2.7-fold. The pEC50 was 5.39 at mGluR5 receptors (setting [2]) and 6.04 in experiment [1] (Table A1). In addition, in experiment [1] (setting [3]), the h left shift is listed as 2.4-fold.

With `O=S(=O)(C1CC1)N1CCc2ncc(C#Cc3ccccc3)cc2C1` [Example 38, 6-(Cyclopropylsulfonyl)-3-(phenylethynyl)-5,6,7,8-tetrahydro-1,6-naphthyridine], the r left shift on mGluR5 receptors (setting [4]) is recorded as 2.5-fold. Besides, on mGluR5 receptors (setting [2]), the pEC50 is 6.32. Besides, in experiment [1] (setting [3]), the h left shift is reported as 1.7-fold.
